We go through one molecule from patent US7414042B2, “Method and composition for selectively inhibiting melanoma” (The Board of Trustees of The University of Illinois, priority 1995, dated 2008).

The test system of assay [1] is UISO MEL-1 cells. Put plainly: In vivo activity against MEL-1 tumors in athymic mice. Particulars: 5, 50 or 250 mg/kg/dose IP betulinic acid/PVP every fourth day, six doses. The procedure: In particular, with respect to FIGS. 4 and 5, four week old athymic mice were injected subcutaneously in the right flank with 5.0×10^8 UISO MEL-1 cells. Drug treatment was initiated on the day following tumor cell injection and continued every fourth day for a total of six doses. Four control animals received 0.5 ml intraperitoneal (IP) saline, while treated animals (4 per group) received 5, 50 or 250 mg/kg/dose IP betulinic acid/PVP in dd H2O. The mice were weighed, and tumors were measured with a micrometer every third day throughout the study. Treated animals were sacrificed and autopsied on day 41, when the mean tumor volume in the control mice was approximately 0.5 cm^3. The control mice then received six doses of 50 mg/kg every fourth day beginning day 41 and were sacrificed and autopsied on day 71.

The test system of assay [2] is MEL-2 cells. Nature of the assay: Formation of the 50 Kbp DNA fragment (apoptosis), field-inversion gel electrophoresis. The format is cell-based, human. From the text:
Therefore, an important feature of the present invention is a method of analyzing and quantifying the formation of the 50 Kbp fragment as a biomarker for induction of apoptosis in human cancer cell lines. This method comprises treatment of cells in culture, followed by analysis of the total cellular DNA content using agarose field-inversion gel electrophoresis. Under these conditions, the 50 Kbp fragment is resolved as a diffuse band. The fraction of the total cellular DNA represented by the 50 Kbp fragment is determined by densitometry on the contour of this band.
To investigate the ability of betulinic acid to induce apoptosis, the above-described method was adapted for use with the MEL-2 cell line. […]
With further respect to FIG. 3A, cultured MEL-2 cells (10^6 cells inoculated per 25 cm^2 flask) were treated with […] betulinic acid (200 μg/ml DMSO, diluted 1:100 in media) for 24, 32, 48, 56 and 72 hours. […] Samples were analyzed on a 1% agarose gel in a Hoefer HE100 SuperSub apparatus cooled to 10° C. by a circulating water bath. […]
Electrophoresis was performed at 172 volts for a total of 18 hours using two sequential field inversion programs with pulse ramping. The DNA/ethidium bromide fluorescence was excited on a UV transilluminator and photographed using Polaroid type 55 P/N film. The negative was analyzed using a PDI scanning densitometer and Quantity One software. […]

Assay [3] has as its system L1210 murine lymphocytic leukemia. Particulars: 200 mg/kg; cited from earlier work.
The test system of assay [4] is human melanoma and nonmelanoma cancer cell lines. Put plainly: Cytotoxicity profile across the panel of human cancer cell lines. Particulars: all Table 1 cell lines other than MEL-2.
Method: In the following Table 1, the extracted betulinic acid and the other pure compounds were tested for cycotoxity against the following cultured human cell lines: A431 (squamous cells), BC-1 (breast), COL-2 (colon), HT-1080 (sarcoma), KB (human oral epidermoid carcinoma), LNCaP (prostate), LU-1 (lung), MEL-2 (melanoma), U373 (glioma) and ZR-75-1 (breast).
Cytotoxicity of the crude extracts and purified compounds was determined in a number of cultured human cancer cell lines. The cells were cultured in appropriate media and under standard conditions. To maintain logarithmic growth, the media were changed 24 hours prior to cytotoxic assays. On the day of the assay, the cells were harvested by trypsinization, counted, diluted in media, and added to 96-well plates containing test compounds dissolved in DMSO; the final DMSO concentration was 0.05%.
The plates were incubated for three days. Following the incubation period, the cells were fixed and stained with sulforhodamine B (SRB) dye. The bound dye was liberated with Tris base, and the OD515 was measured on an ELISA reader. The growth of the betulinic acid-treated cells was determined by the OD515 values, and the growth was compared to the OD515 values of DMSO-treated control cells. Dose response studies were performed to generate ED50 values.
The biological evaluation of the derivatives focused on the activity against human melanoma cell lines. In particular, the following betulinic acid derivatives were prepared and tested for cytotoxicity profile against human melanoma cell lines and against a number of selected nonmelanoma cell lines.

In the case of `C=C(C)[C@@H]1CC[C@]2(C(=O)O)CC[C@]3(C)[C@H](CC[C@@H]4[C@@]5(C)CC[C@H](O)C(C)(C)[C@@H]5CC[C@]43C)[C@@H]12` [Compound 10, 3β-hydroxy-lup-20(29)-ene-28-oic acid], the “activity against MEL-1 tumors (FIGS. 4 and 5)” value in assay [1] is on record as “showed activity against MEL-1 cells”. Moreover, the “treatment period at maximum induction of the 50 Kbp fragment” value in assay [2] (2 μg/ml betulinic acid (FIG. 3A)) came out at 56 h. The “ED50 of the apoptotic response (50 Kbp fragment)” value in assay [2] (MEL-2 cells treated for 56 hours (FIG. 3B)) was “about 1.5 μg/ml”. In addition, the “antitumor activity, L1210” value in assay [3] is “inactive”. The “ED50, other cancer cell lines tested” value in assay [4] is on record as “greater than 20 μg/ml”.
